Read-outs that look alike come from different tables or passages of the source. Blank lines part the entries; values can stand above or below the compound they belong to.
Columns and labels:
CIT = target: T1, CIT (Homo sapiens, UniProt O14578); assay: Kinobeads full dose-response competition binding: CIT; conditions: Gene Name CIT
T1 construct: endogenous in cells

PRKCQ = target: T2, PRKCQ (Homo sapiens, UniProt Q04759); assay: Kinobeads full dose-response competition binding: PRKCQ; conditions: Gene Name PRKCQ
T2 construct: to maximize the representation of endogenous proteins; endogenous in cells
T2 sequence (Q04759 whole entry): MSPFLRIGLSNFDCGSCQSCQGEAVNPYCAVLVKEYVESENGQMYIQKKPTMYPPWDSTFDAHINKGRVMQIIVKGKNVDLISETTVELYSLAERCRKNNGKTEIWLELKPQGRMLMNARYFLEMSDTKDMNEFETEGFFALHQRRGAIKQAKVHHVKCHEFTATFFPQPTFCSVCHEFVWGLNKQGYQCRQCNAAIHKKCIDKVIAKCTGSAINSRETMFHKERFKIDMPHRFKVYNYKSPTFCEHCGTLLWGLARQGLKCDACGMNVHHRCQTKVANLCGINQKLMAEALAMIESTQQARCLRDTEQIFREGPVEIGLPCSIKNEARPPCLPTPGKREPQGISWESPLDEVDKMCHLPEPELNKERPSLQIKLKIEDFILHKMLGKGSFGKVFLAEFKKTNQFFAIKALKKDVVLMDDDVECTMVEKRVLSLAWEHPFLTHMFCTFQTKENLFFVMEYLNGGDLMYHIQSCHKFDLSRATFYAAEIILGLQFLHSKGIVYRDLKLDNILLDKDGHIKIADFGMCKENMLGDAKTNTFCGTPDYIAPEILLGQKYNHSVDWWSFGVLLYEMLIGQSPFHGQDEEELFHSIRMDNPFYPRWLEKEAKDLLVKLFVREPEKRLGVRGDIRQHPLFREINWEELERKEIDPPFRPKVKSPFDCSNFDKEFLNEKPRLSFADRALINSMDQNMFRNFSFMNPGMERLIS

[1] = target: T3, endogenous kinases and other proteins enriched by Kinobeads from mixed lysates of K-562, COLO-205, MV-4-11, SK-N-BE(2) and OVCAR-8 (Homo sapiens, UniProt O75716); assay: Kinobeads competition binding profiling, two doses (100 nM and 1 µM); conditions: STK16;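 also: inhibitor preincubated 45 min at 4 °C in cell lysate, then bead pulldown. Bound protein quantified by label-free mass spectrometry relative to DMSO vehicle control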
T3 construct: endogenous in cells

[2] = target: T4, endogenous kinases and other proteins enriched by Kinobeads from mixed lysates of K-562, COLO-205, MV-4-11, SK-N-BE(2) and OVCAR-8 (Homo sapiens, UniProt P22694); assay: as above; conditions: PKAC-beta
T4 construct: endogenous in cells

[3] = target: T5, endogenous kinases and other proteins enriched by Kinobeads from mixed lysates of K-562, COLO-205, MV-4-11, SK-N-BE(2) and OVCAR-8 (Homo sapiens, UniProt P29597); assay: as above; conditions: TYK2(JH2domain-pseudokinase)
T5 construct: endogenous in cells

[4] = target: T6, endogenous kinases and other proteins enriched by Kinobeads from mixed lysates of K-562, COLO-205, MV-4-11, SK-N-BE(2) and OVCAR-8 (Homo sapiens, UniProt P51955); assay: as above; conditions: NEK2
T6 construct: endogenous in cells
T6 sequence (P51955 whole entry): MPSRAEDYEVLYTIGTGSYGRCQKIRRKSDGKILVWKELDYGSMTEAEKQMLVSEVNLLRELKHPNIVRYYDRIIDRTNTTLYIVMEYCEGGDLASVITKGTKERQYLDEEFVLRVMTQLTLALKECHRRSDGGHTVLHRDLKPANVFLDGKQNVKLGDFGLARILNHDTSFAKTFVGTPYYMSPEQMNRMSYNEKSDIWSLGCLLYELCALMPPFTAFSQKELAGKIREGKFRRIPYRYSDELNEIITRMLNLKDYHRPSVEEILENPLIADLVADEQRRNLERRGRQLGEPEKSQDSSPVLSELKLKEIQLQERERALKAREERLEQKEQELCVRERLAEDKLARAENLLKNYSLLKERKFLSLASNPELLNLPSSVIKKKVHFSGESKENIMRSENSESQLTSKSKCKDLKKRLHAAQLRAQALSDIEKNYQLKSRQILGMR

[5] = target: T7, endogenous kinases and other proteins enriched by Kinobeads from mixed lysates of K-562, COLO-205, MV-4-11, SK-N-BE(2) and OVCAR-8 (Homo sapiens, UniProt P51956); assay: as above; conditions: NEK3
T7 construct: endogenous in cells

[6] = target: T8, endogenous kinases and other proteins enriched by Kinobeads from mixed lysates of K-562, COLO-205, MV-4-11, SK-N-BE(2) and OVCAR-8 (Homo sapiens, UniProt Q13131); assay: as above; conditions: AMPK-alpha1
T8 construct: endogenous in cells

[7] = target: T9, endogenous kinases and other proteins enriched by Kinobeads from mixed lysates of K-562, COLO-205, MV-4-11, SK-N-BE(2) and OVCAR-8 (Homo sapiens, UniProt Q15418); assay: as above; conditions: RSK1(Kin.Dom.1-N-terminal)
T9 construct: endogenous in cells
T9 sequence (Q15418 whole entry): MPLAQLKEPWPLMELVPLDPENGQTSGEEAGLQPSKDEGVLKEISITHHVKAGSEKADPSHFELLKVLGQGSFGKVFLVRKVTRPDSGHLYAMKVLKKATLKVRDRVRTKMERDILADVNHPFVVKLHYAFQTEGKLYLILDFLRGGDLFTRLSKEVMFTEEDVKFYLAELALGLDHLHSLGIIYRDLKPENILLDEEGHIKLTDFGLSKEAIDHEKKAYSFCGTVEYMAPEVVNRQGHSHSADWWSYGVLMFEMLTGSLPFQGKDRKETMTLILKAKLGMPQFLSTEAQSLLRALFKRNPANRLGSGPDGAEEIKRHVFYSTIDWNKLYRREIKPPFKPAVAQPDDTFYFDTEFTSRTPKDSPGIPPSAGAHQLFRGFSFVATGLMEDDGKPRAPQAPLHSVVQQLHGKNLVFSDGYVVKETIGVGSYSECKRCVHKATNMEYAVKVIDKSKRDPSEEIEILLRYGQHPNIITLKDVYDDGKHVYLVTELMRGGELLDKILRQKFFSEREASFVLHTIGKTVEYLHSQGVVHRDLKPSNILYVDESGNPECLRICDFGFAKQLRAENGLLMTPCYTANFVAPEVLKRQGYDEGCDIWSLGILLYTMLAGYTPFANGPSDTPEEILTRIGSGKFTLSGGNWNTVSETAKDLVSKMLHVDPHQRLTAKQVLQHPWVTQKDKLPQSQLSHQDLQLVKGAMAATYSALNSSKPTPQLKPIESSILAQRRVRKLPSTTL

[8] = target: T10, endogenous kinases and other proteins enriched by Kinobeads from mixed lysates of K-562, COLO-205, MV-4-11, SK-N-BE(2) and OVCAR-8 (Homo sapiens, UniProt Q16832); assay: as above; conditions: DDR2
T10 construct: endogenous in cells

[9] = target: T11, endogenous kinases and other proteins enriched by Kinobeads from mixed lysates of K-562, COLO-205, MV-4-11, SK-N-BE(2) and OVCAR-8 (Homo sapiens, UniProt Q9H2G2); assay: as above; conditions: SLK
T11 construct: endogenous in cells

[10] = target: T12, endogenous kinases and other proteins enriched by Kinobeads from mixed lysates of K-562, COLO-205, MV-4-11, SK-N-BE(2) and OVCAR-8 (Homo sapiens, UniProt Q9Y6R4); assay: as above; conditions: MAP3K4
T12 construct: to maximize the representation of endogenous proteins; endogenous in cells

[11] = target: T13, endogenous kinases and other proteins enriched by Kinobeads from mixed lysates of K-562, COLO-205, MV-4-11, SK-N-BE(2) and OVCAR-8 (Homo sapiens, UniProt Q15569); assay: as above; conditions: read-out: Lestaurtinib Drugmatrix value, Gene Name TESK1; target TESK1; one Lestaurtinib control experiment/replicate (R1-R3)
T13 construct: endogenous in cells

ULK1 = target: T14, ULK1 (Homo sapiens, UniProt O75385); assay: Kinobeads two-dose competition binding: ULK1; conditions: read-out: Lestaurtinib Drugmatrix value, Gene Name ULK1; repeated control pulldowns; each column = experiment id and replicate (Lestaurtinib_02339_R1 ... Lestaurtinib_03260_R3)
T14 construct: to maximize the representation of endogenous proteins; endogenous in cells

BMPR1B = target: T15, BMPR1B (Homo sapiens, UniProt O00238); assay: Kinobeads two-dose competition binding: BMPR1B; conditions: read-out: Lestaurtinib Drugmatrix value, Gene Name BMPR1B
T15 construct: endogenous in cells

ERN1 = target: T16, ERN1 (Homo sapiens, UniProt O75460); assay: Kinobeads two-dose competition binding: ERN1; conditions: read-out: Lestaurtinib Drugmatrix value, Gene Name ERN1
T16 construct: endogenous in cells

ERN2 = target: T17, ERN2 (Homo sapiens, UniProt Q76MJ5); assay: Kinobeads two-dose competition binding: ERN2; conditions: read-out: Lestaurtinib Drugmatrix value, Gene Name ERN2
T17 construct: endogenous in cells

ULK3 = target: T18, ULK3 (Homo sapiens, UniProt Q6PHR2); assay: Kinobeads two-dose competition binding: ULK3
T18 construct: endogenous in cells
T18 sequence (Q6PHR2 whole entry): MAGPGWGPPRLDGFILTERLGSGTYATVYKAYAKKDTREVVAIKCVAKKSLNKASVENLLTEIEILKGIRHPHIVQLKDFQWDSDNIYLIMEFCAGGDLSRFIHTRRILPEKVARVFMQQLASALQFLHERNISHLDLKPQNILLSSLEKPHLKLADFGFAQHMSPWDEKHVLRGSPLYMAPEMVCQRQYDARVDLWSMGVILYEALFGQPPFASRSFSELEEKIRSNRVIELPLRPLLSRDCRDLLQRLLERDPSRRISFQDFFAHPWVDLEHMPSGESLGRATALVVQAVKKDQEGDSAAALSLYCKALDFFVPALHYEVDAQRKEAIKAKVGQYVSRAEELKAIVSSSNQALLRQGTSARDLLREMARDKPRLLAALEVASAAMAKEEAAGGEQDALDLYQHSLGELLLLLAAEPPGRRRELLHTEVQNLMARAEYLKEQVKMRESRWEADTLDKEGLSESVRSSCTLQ

HSP90B1 = target: T19, HSP90B1 (Homo sapiens, UniProt P14625); assay: Kinobeads two-dose competition binding: HSP90B1; conditions: read-out: Lestaurtinib Drugmatrix value, Gene Name HSP90B1
T19 construct: endogenous in cells

PAK6 = target: T20, PAK6 (Homo sapiens, UniProt Q9NQU5); assay: Kinobeads competition binding, Lestaurtinib control replicates: PAK6; conditions: read-out: Lestaurtinib Drugmatrix value; Gene Name PAK6; one column per experiment number and replicate (R1-R3)
T20 construct: a mixture of lysates from five cancer cell lines; endogenous in cells

CSNK1E = target: T21, CSNK1E (Homo sapiens, UniProt P49674); assay: Kinobeads full dose-response competition binding: CSNK1E; conditions: Gene Name CSNK1E
T21 construct: endogenous in cells
T21 sequence (P49674 whole entry): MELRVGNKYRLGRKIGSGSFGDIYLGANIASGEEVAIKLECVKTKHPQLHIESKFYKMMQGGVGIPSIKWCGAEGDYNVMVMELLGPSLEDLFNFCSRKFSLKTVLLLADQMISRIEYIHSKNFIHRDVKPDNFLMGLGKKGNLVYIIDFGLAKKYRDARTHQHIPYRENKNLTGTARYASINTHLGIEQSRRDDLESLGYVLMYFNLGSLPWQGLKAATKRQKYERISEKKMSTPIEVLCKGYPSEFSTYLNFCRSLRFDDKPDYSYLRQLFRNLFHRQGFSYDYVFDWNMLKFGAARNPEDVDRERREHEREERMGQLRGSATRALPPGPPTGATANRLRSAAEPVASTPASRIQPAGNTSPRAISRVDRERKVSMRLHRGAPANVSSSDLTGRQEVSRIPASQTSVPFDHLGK

[12] = EC50 with Correction, doses in nM, read-out: apparent Kd
[13] = eight-dose curve fit, doses in nM

T1 sequence (O14578 whole entry): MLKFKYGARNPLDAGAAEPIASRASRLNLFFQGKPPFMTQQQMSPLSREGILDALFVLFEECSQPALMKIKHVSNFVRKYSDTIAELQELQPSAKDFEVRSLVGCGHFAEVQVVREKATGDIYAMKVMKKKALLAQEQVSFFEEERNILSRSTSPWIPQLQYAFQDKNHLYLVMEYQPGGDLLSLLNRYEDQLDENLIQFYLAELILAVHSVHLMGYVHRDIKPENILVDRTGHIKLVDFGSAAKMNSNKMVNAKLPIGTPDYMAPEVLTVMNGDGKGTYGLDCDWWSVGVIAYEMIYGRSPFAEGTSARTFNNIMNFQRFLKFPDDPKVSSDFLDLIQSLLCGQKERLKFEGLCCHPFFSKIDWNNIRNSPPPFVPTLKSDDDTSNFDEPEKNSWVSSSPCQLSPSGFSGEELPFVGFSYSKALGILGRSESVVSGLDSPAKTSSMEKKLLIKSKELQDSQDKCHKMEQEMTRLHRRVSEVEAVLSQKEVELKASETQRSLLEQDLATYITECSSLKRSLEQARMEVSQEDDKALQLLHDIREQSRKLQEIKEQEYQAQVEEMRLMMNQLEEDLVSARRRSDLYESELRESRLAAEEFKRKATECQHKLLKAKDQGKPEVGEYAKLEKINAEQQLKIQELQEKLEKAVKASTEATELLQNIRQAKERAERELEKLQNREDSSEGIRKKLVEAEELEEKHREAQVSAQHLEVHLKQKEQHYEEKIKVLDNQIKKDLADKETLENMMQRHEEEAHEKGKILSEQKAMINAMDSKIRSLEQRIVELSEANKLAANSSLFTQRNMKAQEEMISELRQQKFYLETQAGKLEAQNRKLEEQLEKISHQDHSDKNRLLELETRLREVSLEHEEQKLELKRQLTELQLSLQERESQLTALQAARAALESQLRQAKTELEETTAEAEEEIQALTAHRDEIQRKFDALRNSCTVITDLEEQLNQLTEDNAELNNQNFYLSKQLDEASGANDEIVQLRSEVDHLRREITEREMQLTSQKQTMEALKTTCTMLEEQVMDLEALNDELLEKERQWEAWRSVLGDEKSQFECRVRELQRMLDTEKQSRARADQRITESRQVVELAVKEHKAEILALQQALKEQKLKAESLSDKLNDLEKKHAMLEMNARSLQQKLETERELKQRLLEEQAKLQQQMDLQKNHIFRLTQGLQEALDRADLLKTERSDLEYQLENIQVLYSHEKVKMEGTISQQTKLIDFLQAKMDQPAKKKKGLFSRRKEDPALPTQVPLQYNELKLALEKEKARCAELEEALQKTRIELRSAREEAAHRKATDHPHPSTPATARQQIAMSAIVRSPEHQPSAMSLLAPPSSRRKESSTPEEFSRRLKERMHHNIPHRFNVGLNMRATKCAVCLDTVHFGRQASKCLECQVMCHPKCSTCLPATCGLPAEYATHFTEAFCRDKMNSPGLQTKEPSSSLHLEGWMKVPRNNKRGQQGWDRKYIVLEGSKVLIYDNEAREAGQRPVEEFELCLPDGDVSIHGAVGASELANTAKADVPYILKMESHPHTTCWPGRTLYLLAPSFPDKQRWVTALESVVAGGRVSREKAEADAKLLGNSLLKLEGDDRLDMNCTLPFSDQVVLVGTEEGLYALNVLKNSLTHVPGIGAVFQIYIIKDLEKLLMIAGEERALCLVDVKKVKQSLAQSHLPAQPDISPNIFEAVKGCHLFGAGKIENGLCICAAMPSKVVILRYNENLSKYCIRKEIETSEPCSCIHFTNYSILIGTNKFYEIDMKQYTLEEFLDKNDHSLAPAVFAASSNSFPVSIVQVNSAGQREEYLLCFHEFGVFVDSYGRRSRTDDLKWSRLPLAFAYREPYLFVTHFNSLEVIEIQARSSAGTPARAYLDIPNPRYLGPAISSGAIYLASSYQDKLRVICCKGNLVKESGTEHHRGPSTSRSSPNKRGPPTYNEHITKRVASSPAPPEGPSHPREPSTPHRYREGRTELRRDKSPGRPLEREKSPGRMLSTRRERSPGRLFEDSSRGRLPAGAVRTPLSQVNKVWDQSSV

Relative Intensity 0.3nM (CIT; 0.3nM compound, DMSO = 1): 1.0296
Relative Intensity 1nM (CIT; 1nM compound, DMSO = 1): 1.0023
Relative Intensity 3nM (CIT; 3nM compound, DMSO = 1): 1.019
Relative Intensity 10nM (CIT; 10nM compound, DMSO = 1): 1.082
Relative Intensity 30nM (CIT; 30nM compound, DMSO = 1): 1.01
Relative Intensity 100nM (CIT; 100nM compound, DMSO = 1): 0.9604
Relative Intensity 300nM (CIT; 300nM compound, DMSO = 1): 0.7575
Relative Intensity 1000nM (CIT; 1000nM compound, DMSO = 1): 0.5648
Kd (CIT; [12]): 279 nM
EC50 (CIT; [13]): 279 nM
Relative Intensity 0.3nM (PRKCQ; 0.3nM compound, DMSO = 1): 0.9348
Relative Intensity 1nM (PRKCQ; 1nM compound, DMSO = 1): 1.037
Relative Intensity 3nM (PRKCQ; 3nM compound, DMSO = 1): 0.9215
Relative Intensity 10nM (PRKCQ; 10nM compound, DMSO = 1): 0.8429
Relative Intensity 30nM (PRKCQ; 30nM compound, DMSO = 1): 0.5346
Relative Intensity 100nM (PRKCQ; 100nM compound, DMSO = 1): 0.4204
Relative Intensity 300nM (PRKCQ; 300nM compound, DMSO = 1): 0
Relative Intensity 1000nM (PRKCQ; 1000nM compound, DMSO = 1): 0
Kd (PRKCQ; [12]): 58.7 nM
EC50 (PRKCQ; [13]): 58.7 nM
SMILES: CCn1c(-c2nonc2N)nc2c(C#CC(C)(C)O)nc(OCCN)cc21 [GSK902056A]

SMILES: COc1cc(Nc2ncc3c(C)nc(-c4cc5ccccc5[nH]4)n3n2)cc(OC)c1OC [GW869516X]
Kinobeads Data [1]: no target
Kinobeads Data [2]: no target
Kinobeads Data [3]: no target
Kinobeads Data [4]: no target
Kinobeads Data [5]: no target
Kinobeads Data [6]: no target
Kinobeads Data [7]: no target
Kinobeads Data [8]: no target
Kinobeads Data [9]: no target
Kinobeads Data [10]: no target

SMILES: C[C@]12O[C@H](C[C@]1(O)CO)n1c3ccccc3c3c4c(c5c6ccccc6n2c5c31)CNC4=O [Lestaurtinib]
potency estimated from few doses [11]: 622 nM
potency estimated from few doses (ULK1): 549 nM
potency estimated from few doses (BMPR1B): 737 nM
potency estimated from few doses (ERN1): 176 nM
potency estimated from few doses (ERN2): 346 nM
potency estimated from few doses (ULK3; read-out: Lestaurtinib Drugmatrix value, Gene Name ULK3, repeated control pulldowns; each column = experiment id and replicate (Lestaurtinib_02339_R1 ... Lestaurtinib_03260_R3)): 113 nM
potency estimated from few doses (ULK3; read-out: Lestaurtinib Drugmatrix value, Gene Name ULK3; repeated control pulldowns; each column = experiment id and replicate (Lestaurtinib_02339_R1 ... Lestaurtinib_03260_R3)): 218 nM
potency estimated from few doses (HSP90B1): 979 nM
potency estimated from few doses (PAK6): 151 nM

SMILES: NCc1ccc(-c2nc(-c3ccncc3)c(-c3ccc(Cl)c(O)c3)[nH]2)cc1 [SB-476429-A]
Relative Intensity 0.3nM (CSNK1E; 0.3nM compound, DMSO = 1): 1.09
Relative Intensity 1nM (CSNK1E; 1nM compound, DMSO = 1): 1.082
Relative Intensity 3nM (CSNK1E; 3nM compound, DMSO = 1): 1.034
Relative Intensity 10nM (CSNK1E; 10nM compound, DMSO = 1): 1.047
Relative Intensity 30nM (CSNK1E; 30nM compound, DMSO = 1): 0.8419
Relative Intensity 100nM (CSNK1E; 100nM compound, DMSO = 1): 0.9482
Relative Intensity 300nM (CSNK1E; 300nM compound, DMSO = 1): 0.7771
Relative Intensity 1000nM (CSNK1E; 1000nM compound, DMSO = 1): 0.494
Kd (CSNK1E; [12]): 642 nM
EC50 (CSNK1E; [13]): 642 nM

— publication PMC11062922 (Nature Chemical Biology, 2023)
